Reference: US20200016122A1, “METHOD FOR REDUCING ITCHING IN ATOPIC DERMATITIS” (priority 2018, published 2020)

Key:
human skin = experiment: patch test on human skin; type: in vivo; settings: patch tests on human skin
Procedure: (§1) The present inventors performed single oral dose toxicity tests (2,000 mg/kg) for N-nonanoyltryptamine over 14 days using Kwl:ICR mice. […] Patch tests were performed on human skin, the skin irritation index was 0.0, and the safety was confirmed (LIFE SCIENCE LABORATORIES, LTD., June 2011).

goats = type: in vivo; settings: 1.0 mg/50 kg/day over 4 years
Kwl:ICR mice = settings: mouse, in vivo, 14 days
Procedure: as §1

## CCCCCCCCC(=O)NCCc1c[nH]c2ccccc12 [N-nonanoyltryptamine]
Human skin
  skin irritation index: 0.0
goats
  breeding effect: strong breeding effect
Kwl:ICR mice
  lethal dose: ≥ 2,000 mg/kg
